Results taken from PubChem BioAssay (NCI).
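The compound was tested at five concentrations on cells cultured in 96-well plates, with a 48-hour exposure period. TGI denotes the concentration required for complete inhibition of growth.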

What was measured:
Experiment in all cases: growth of human tumour cells (NCI), 48 h
NCI-H226 lung = tested on: NCI-H226 lung
NCI/ADR-RES ovarian = tested on: NCI/ADR-RES ovarian
HCC-2998 colon = tested on: HCC-2998 colon
MDA-N = tested on: MDA-N
HOP-62 NSCLC = tested on: HOP-62 NSCLC
OVCAR-3 ovarian = tested on: OVCAR-3 ovarian
DU-145 prostate = tested on: DU-145 prostate
CAKI-1 renal = tested on: CAKI-1 renal
KM12 colon = tested on: KM12 colon
UACC-62 melanoma = tested on: UACC-62 melanoma
MDA-MB-231 breast = tested on: MDA-MB-231 breast
SK-OV-3 ovarian = tested on: SK-OV-3 ovarian
ACHN renal = tested on: ACHN renal
SF-295 CNS = tested on: SF-295 CNS
UO-31 renal = tested on: UO-31 renal
SN12C renal = tested on: SN12C renal
EKVX NSCLC = tested on: EKVX NSCLC
MALME-3M melanoma = tested on: MALME-3M melanoma
OVCAR-4 ovarian = tested on: OVCAR-4 ovarian
MCF7 breast = tested on: MCF7 breast
K-562 leukemia = tested on: K-562 leukemia
CCRF-CEM leukemia = tested on: CCRF-CEM leukemia
HOP-92 NSCLC = tested on: HOP-92 NSCLC
SF-539 CNS = tested on: SF-539 CNS
NCI-H23 lung = tested on: NCI-H23 lung
TK-10 renal = tested on: TK-10 renal
OVCAR-5 ovarian = tested on: OVCAR-5 ovarian
HCT-15 colon = tested on: HCT-15 colon
SK-MEL-28 melanoma = tested on: SK-MEL-28 melanoma
LOX IMVI melanoma = tested on: LOX IMVI melanoma
SK-MEL-5 melanoma = tested on: SK-MEL-5 melanoma
NCI-H522 lung = tested on: NCI-H522 lung
OVCAR-8 ovarian = tested on: OVCAR-8 ovarian
U251 CNS = tested on: U251 CNS
UACC-257 melanoma = tested on: UACC-257 melanoma
SW-620 colon = tested on: SW-620 colon
MOLT-4 leukemia = tested on: MOLT-4 leukemia
A549 NSCLC = tested on: A549 NSCLC
HCT-116 colon = tested on: HCT-116 colon
MDA-MB-435 = tested on: MDA-MB-435
SK-MEL-2 melanoma = tested on: SK-MEL-2 melanoma
HT29 colon = tested on: HT29 colon
HL-60(TB) leukemia = tested on: HL-60(TB) leukemia
T-47D breast = tested on: T-47D breast
A498 renal = tested on: A498 renal
SNB-75 CNS = tested on: SNB-75 CNS
IGROV1 ovarian = tested on: IGROV1 ovarian
786-0 renal = tested on: 786-0 renal
SNB-19 CNS = tested on: SNB-19 CNS
M14 melanoma = tested on: M14 melanoma
COLO 205 colon = tested on: COLO 205 colon
PC-3 prostate = tested on: PC-3 prostate
SF-268 CNS = tested on: SF-268 CNS
SR leukemia = tested on: SR leukemia
RPMI-8226 leukemia = tested on: RPMI-8226 leukemia
NCI-H460 lung = tested on: NCI-H460 lung

`CN(N=O)C(=O)Nc1c[nH]c(=O)[nH]c1=O` was tested, and the TGI (NCI-H226 lung) was over 100 µM, the TGI (NCI/ADR-RES ovarian) was over 100 µM and the TGI (HCC-2998 colon) was over 100 µM. For the same compound, the TGI (MDA-N) was over 100 µM, the TGI (HOP-62 NSCLC) was over 100 µM and the TGI (OVCAR-3 ovarian) was over 100 µM. It also gave a TGI (DU-145 prostate) of over 100 µM, a TGI (CAKI-1 renal) of over 100 µM and a TGI (KM12 colon) of over 100 µM. It also gave a TGI (UACC-62 melanoma) of over 100 µM, a TGI (MDA-MB-231 breast) of over 100 µM and a TGI (SK-OV-3 ovarian) of over 100 µM. The TGI (ACHN renal) was over 100 µM, the TGI (SF-295 CNS) was over 100 µM and the TGI (UO-31 renal) was over 100 µM. The TGI (SN12C renal) was over 100 µM, the TGI (EKVX NSCLC) was over 100 µM and the TGI (MALME-3M melanoma) was over 100 µM. For the same compound, the TGI (OVCAR-4 ovarian) was over 100 µM, the TGI (MCF7 breast) was over 100 µM and the TGI (K-562 leukemia) was over 100 µM. The TGI (CCRF-CEM leukemia) was over 100 µM, the TGI (HOP-92 NSCLC) was over 100 µM and the TGI (SF-539 CNS) was over 100 µM. It also gave a TGI (NCI-H23 lung) of over 100 µM, a TGI (TK-10 renal) of over 100 µM and a TGI (OVCAR-5 ovarian) of over 100 µM. It also gave a TGI (HCT-15 colon) of over 100 µM, a TGI (SK-MEL-28 melanoma) of over 100 µM and a TGI (LOX IMVI melanoma) of over 100 µM. The TGI (SK-MEL-5 melanoma) was over 100 µM, the TGI (NCI-H522 lung) was over 100 µM and the TGI (OVCAR-8 ovarian) was over 100 µM. It also gave a TGI (U251 CNS) of over 100 µM, a TGI (UACC-257 melanoma) of over 100 µM and a TGI (SW-620 colon) of over 100 µM. For the same compound, the TGI (MOLT-4 leukemia) was over 100 µM, the TGI (A549 NSCLC) was over 100 µM and the TGI (HCT-116 colon) was over 100 µM. It also gave a TGI (MDA-MB-435) of over 100 µM, a TGI (SK-MEL-2 melanoma) of over 100 µM and a TGI (HT29 colon) of over 100 µM. It also gave a TGI (HL-60(TB) leukemia) of over 100 µM, a TGI (T-47D breast) of over 100 µM and a TGI (A498 renal) of over 100 µM. It also gave a TGI (SNB-75 CNS) of over 100 µM, a TGI (IGROV1 ovarian) of over 100 µM and a TGI (786-0 renal) of over 100 µM. It also gave a TGI (SNB-19 CNS) of over 100 µM, a TGI (M14 melanoma) of over 100 µM and a TGI (COLO 205 colon) of over 100 µM. The TGI (PC-3 prostate) was over 100 µM.
`c1ccc(COc2ccc(CC3SCCCS3)cc2)cc1` was tested, and the TGI (HCC-2998 colon) was over 100 µM, the TGI (MDA-N) was over 100 µM and the TGI (HOP-62 NSCLC) was over 100 µM. It also gave a TGI (OVCAR-3 ovarian) of over 100 µM, a TGI (DU-145 prostate) of over 100 µM and a TGI (CAKI-1 renal) of over 100 µM. The TGI (SF-268 CNS) was over 100 µM, the TGI (SR leukemia) was over 100 µM and the TGI (UACC-62 melanoma) was over 100 µM. For the same compound, the TGI (MDA-MB-231 breast) was over 100 µM, the TGI (ACHN renal) was over 100 µM and the TGI (SF-295 CNS) was over 100 µM. For the same compound, the TGI (RPMI-8226 leukemia) was over 100 µM, the TGI (EKVX NSCLC) was over 100 µM and the TGI (MALME-3M melanoma) was over 100 µM. For the same compound, the TGI (OVCAR-4 ovarian) was over 100 µM, the TGI (NCI-H460 lung) was over 100 µM and the TGI (MCF7 breast) was over 100 µM. For the same compound, the TGI (K-562 leukemia) was over 100 µM, the TGI (CCRF-CEM leukemia) was over 100 µM and the TGI (HOP-92 NSCLC) was 74.3 µM. It also gave a TGI (TK-10 renal) of over 100 µM, a TGI (HCT-15 colon) of over 100 µM and a TGI (SK-MEL-28 melanoma) of over 100 µM. The TGI (LOX IMVI melanoma) was over 100 µM, the TGI (SK-MEL-5 melanoma) was over 100 µM and the TGI (NCI-H522 lung) was over 100 µM. The TGI (OVCAR-8 ovarian) was over 100 µM, the TGI (UACC-257 melanoma) was over 100 µM and the TGI (SW-620 colon) was over 100 µM. For the same compound, the TGI (MOLT-4 leukemia) was over 100 µM, the TGI (A549 NSCLC) was over 100 µM and the TGI (HCT-116 colon) was over 100 µM. It also gave a TGI (MDA-MB-435) of over 100 µM, a TGI (HT29 colon) of over 100 µM and a TGI (HL-60(TB) leukemia) of over 100 µM. The TGI (T-47D breast) was over 100 µM, the TGI (IGROV1 ovarian) was over 100 µM and the TGI (SNB-19 CNS) was over 100 µM. For the same compound, the TGI (M14 melanoma) was over 100 µM, the TGI (COLO 205 colon) was over 100 µM and the TGI (PC-3 prostate) was over 100 µM.
